The text below walks through data of PMC10627047, “Flavone-based dual PARP-Tubulin inhibitor manifesting efficacy against endometrial cancer” (Journal of Enzyme Inhibition and Medicinal Chemistry, 2023).

One data set concerns Ishikawa cell lines. The experiment in a line: In-vitro cytotoxicity (MTT cell viability assay). To be noted: Homo sapiens, read-out: IC50 values (Ishikawa cell lines, µM ± SD), in-vitro growth inhibition. In kind it is cell-based. As to the method:
The cell growth inhibitory effects of the synthesised compounds were evaluated against Ishikawa cell lines. […] Forth, the synthesised compounds bearing a substituted phenyl ring at position 2 of the biaryl arm bearing benzopyrans were profiled for the cytotoxic effects. Noteworthy to mention that diverse substitutions with varied electronic effects viz fluorine (−I, +R), methoxy (−I, +R), and nitro (−I and − R) were made on the phenyl ring (position 2 of benzopyran). Also, the trimethoxy phenyl ring well established as an imperative structural feature of tubulin inhibitors was tethered to the benzopyran scaffold (20, 21).
Ishikawa cells (a human endometrial carcinoma of the epithelial cell) were kindly gifted by Dr. Geetanjali Sachdeva and Dr. Uddhav Chaudhari of National Institute for Research In Reproductive and Child Health (NIRRCH), Mumbai. […] The cells were maintained in RPMI medium supplemented with 10% Foetal bovine serum (FBS) and 100 IU/mL penicillin.
Mitochondrial activity was evaluated by MTT assay.[59] This assay is based on enzymatic reduction of the yellow-colored MTT dye to purple-colored formazan crystals by a variety of mitochondrial and cytosolic enzymes that are operational in viable cells. Briefly, […] (3000 cells/well) were seeded in 100 µL of medium into a 96-well plate and left to settle in a CO2 incubator. […] Then 150 μL of DMSO was added to each well to dissolve the formazan crystals. The optical density (OD) of each well was recorded using a microplate reader at a wavelength of 570 nm. The percentages of cell viability and growth inhibition were calculated according to the following equations. Cell viability (%) = [(OD of treated cells-OD of blank)/(OD of control-OD of blank) ×100].

Setting [1] is: Ishikawa cell lines, MTT, 48 h incubation, mean ± SD, at least three experiments.

Read-outs that look alike come from different tables or passages of the source. A value given as a limit tells only on which side of the number the result lay.

As for `COc1ccc(/C=C\c2cc(OC)c(OC)c(OC)c2)cc1O` [Combretastatin, Combretastatin A-4, reference compound], in the data set with Ishikawa cell lines (setting [1]), the half-inhibitory concentration (IC50) (commonly the concentration at which inhibition is half-maximal) was found to be 4.21 ± 0.78 µM. In the case of `O=c1cc(-c2ccccc2)oc2cc(-c3ccccc3)ccc12` [Compound 1, 2,7-diphenyl-4H-chromen-4-one], the melting point (in general, the temperature of the solid-liquid transition) is 153 to 157 °C. In addition, the IC50 in the data set on Ishikawa cell lines (setting [1]) stood at 3 ± 1.09 µM.

For `O=c1cc(-c2ccccc2)oc2cc(-c3ccoc3)ccc12` [Compound 2, 7-(Furan-3-yl)-2-phenyl-4H-chromen-4-one], the melting point was 163 to 167 °C. Moreover, the IC50 in the data set on Ishikawa cell lines (setting [1]) is 1.5 ± 0.67 µM. Taken in the same sequence, the figures for `O=c1cc(-c2ccccc2)oc2cc(-c3cccs3)ccc12` [Compound 3, 2-phenyl-7-(thiophen-2-yl)-4H-chromen-4-one] were 186 to 189 °C and 2.1 ± 0.89 µM. Taken in the same sequence, the figures for `O=c1cc(-c2ccccc2)oc2cc(-c3ccc4c(c3)OCCO4)ccc12` [Compound 4, 7–(2,3-dihydrobenzo[b][1,4]dioxin-6-yl)-2-phenyl-4H-chromen-4-one] were 181 to 184 °C and more than 10 µM. For `O=c1cc(-c2ccccc2)oc2cc(-c3ccc4ncccc4c3)ccc12` [Compound 5, 2-phenyl-7-(quinolin-6-yl)-4H-chromen-4-one], the melting point was in the range of 136 to 140 °C. For the same compound, in the data set with Ishikawa cell lines (setting [1]), the IC50 was more than 10 µM. The compound `O=c1cc(-c2ccccc2)oc2cc(-c3ccc4[nH]ccc4c3)ccc12` [Compound 6, 7-(1H-indol-5-yl)-2-phenyl-4H-chromen-4-one] came in with a melting point of 246 to 249 °C. In addition, in the data set with Ishikawa cell lines (setting [1]), the IC50 was more than 10 µM. Taken in the same sequence, the figures for `COc1ccc(-c2cc(=O)c3ccc(-c4ccccc4)cc3o2)cc1` [Compound 7, 2–(4-methoxyphenyl)-7-phenyl-4H-chromen-4-one] were 172 to 175 °C and 6.3 ± 1.08 µM. Taken in the same sequence, the figures for `COc1ccc(-c2cc(=O)c3ccc(-c4ccoc4)cc3o2)cc1` [Compound 8, 7-(Furan-3-yl)-2–(4-methoxyphenyl)-4H-chromen-4-one] were 173 to 176 °C and 3.2 ± 1.04 µM. Taken in the same sequence, the figures for `COc1ccc(-c2cc(=O)c3ccc(-c4cccs4)cc3o2)cc1` [Compound 9, 2–(4-methoxyphenyl)-7-(thiophen-2-yl)-4H-chromen-4-one] were 180 to 184 °C and 3 ± 0.785 µM.

On to `COc1ccc(-c2cc(=O)c3ccc(-c4ccc5c(c4)OCCO5)cc3o2)cc1` [Compound 10, 7–(2,3-dihydrobenzo[b][1,4]dioxin-6-yl)-2–(4-methoxyphenyl)-4H-chromen-4-one], for which the melting point lay within 183 to 186 °C. Moreover, the IC50 in the data set with Ishikawa cell lines (setting [1]) was more than 10 µM. Consider `COc1ccc(-c2cc(=O)c3ccc(-c4ccc5ncccc5c4)cc3o2)cc1` [Compound 11, 2–(4-methoxyphenyl)-7-(quinolin-6-yl)-4H-chromen-4-one], for which the melting point is 221 to 224 °C. In addition, the IC50 with Ishikawa cell lines (setting [1]) is more than 10 µM. Taken in the same sequence, the figures for `COc1ccc(-c2cc(=O)c3ccc(-c4ccc5[nH]ccc5c4)cc3o2)cc1` [Compound 12, 7-(1H-indol-5-yl)-2–(4-methoxyphenyl)-4H-chromen-4-one] were 129 to 132 °C and more than 10 µM. Taken in the same sequence, the figures for `O=c1cc(-c2ccc(F)cc2)oc2cc(-c3ccccc3)ccc12` [Compound 13, 2–(4-fluorophenyl)-7-phenyl-4H-chromen-4-one] were 193 to 196 °C and 2.03 ± 1.1 µM. The compound `O=c1cc(-c2ccc(F)cc2)oc2cc(-c3cccs3)ccc12` [Compound 15, 2–(4-fluorophenyl)-7-(thiophen-2-yl)-4H-chromen-4-one] returned a melting point of 202 to 205 °C. In addition, in the data set on Ishikawa cell lines (setting [1]), the IC50 came to 1.5 ± 1.08 µM. In turn, `O=c1cc(-c2ccc(F)cc2)oc2cc(-c3ccc4c(c3)OCCO4)ccc12` [Compound 16, 7–(2,3-dihydrobenzo[b][1,4]dioxin-6-yl)-2–(4-fluorophenyl)-4H-chromen-4-one] displayed a melting point of 193 to 196 °C. The IC50 in the data set with Ishikawa cell lines (setting [1]) is more than 10 µM. For `O=c1cc(-c2ccc(F)cc2)oc2cc(-c3ccc4ncccc4c3)ccc12` [Compound 17, 2–(4-fluorophenyl)-7-(quinolin-6-yl)-4H-chromen-4-one], the melting point lay in the range of 236 to 240 °C. Moreover, the IC50 in the data set with Ishikawa cell lines (setting [1]) is more than 10 µM. Taken in the same sequence, the figures for `O=c1cc(-c2ccc(F)cc2)oc2cc(-c3ccc4[nH]ccc4c3)ccc12` [Compound 18, 2–(4-fluorophenyl)-7-(1H-indol-5-yl)-4H-chromen-4-one] were 229 to 232 °C and more than 10 µM. Taken in the same sequence, the figures for `O=c1cc(-c2ccc([N+](=O)[O-])cc2)oc2cc(-c3ccc4[nH]ccc4c3)ccc12` [Compound 19, 7-(1H-indol-5-yl)-2–(4-nitrophenyl)-4H-chromen-4-one] were 255 to 258 °C and more than 10 µM. `COc1cc(-c2cc(=O)c3ccc(-c4ccc5ncccc5c4)cc3o2)cc(OC)c1OC` [Compound 20, 7-(Quinolin-6-yl)-2–(3,4,5-trimethoxyphenyl)-4H-chromen-4-one] came in with a melting point of 214 to 217 °C. In the data set with Ishikawa cell lines (setting [1]), the IC50 is more than 10 µM. Taken in the same sequence, the figures for `COc1cc(-c2cc(=O)c3ccc(-c4ccc5[nH]ccc5c4)cc3o2)cc(OC)c1OC` [Compound 21, 7-(1H-indol-5-yl)-2–(3,4,5-trimethoxyphenyl)-4H-chromen-4-one] were 246 to 250 °C and more than 10 µM. Turning to `O=C(c1cc(Cc2n[nH]c(=O)c3ccccc23)ccc1F)N1CCN(C(=O)C2CC2)CC1` [Olaparib, reference compound], the IC50 in the data set on Ishikawa cell lines (Ishikawa, 48 h) turned out to be 3.91 ± 1.06 µM. As for `O=c1cc(-c2ccccc2)oc2ccccc12` [X, reference compound], in the data set with Ishikawa cell lines (setting [1]), the IC50 was more than 10 µM.
